Experimental data: patent publication US12162878B2 (HINOVA PHARMACEUTICALS INC., priority 2018, dated 2024)

Test system: CWR22RV1 cells
Experiment: Inhibition of proliferation of CWR22RV1 cells (CCK-8)
Type: cell-based, human
Conditions: Homo sapiens, 144 h, 6 days
Description: • CWR22RV1 cell line (Cell Bank of Chinese Academy of Sciences, TCHu100) • FBS (Gibco, Cat. No. 10099-141) • 0.01M PBS (Biosharp, Cat. No. 162262) • RIPM1640 (Hyclone, Cat. No. 308090.01) • Penicillin-Streptomycin (Hyclone, Cat. No. SV30010) • Cell counting kit-8 (Signalway Antibody, Cat. No. CP002) • DMSO (Sigma, Cat. No. D5879) • Centrifuge Tube, 15 ml (Excell Bio, Cat. No. CS015-0001) • Cell Culture Dish, (Excell Bio, Cat. No. CS016-0128) • 96-well cell culture cluster (Corning, Cat. No. 3599) • 2. Experimental method (1) Preparation of Buffer
1) CWR22RV1 cells were subcultured in cell culture medium, and the cells in good growth condition were seeded in a 96-well plate, 80 μL for each well, thus the number of cells per well was 1500, then the plate was cultured overnight in a 37° C., 5% CO2 cell incubator.
2) The drug was prepared with dimethyl sulfoxide (DMSO) as a 30 mM stock solution. Prior to use, the solution was diluted 3 times with DMSO, and then diluted with a 3-fold gradient to obtain 9 concentration gradients. Then, each concentration of the compound was further diluted 200 times with the culture solution (to ensure that DMSO concentration in the culture system was 0.1%), 2 repeat wells for each concentration. The diluted solution of each compound (20 μL) was added to the cell culture well (with a final concentration of 10 μM, 3.3 μM, 1.1 μM . . . ), and shaken gently for mixing. In addition, three negative control wells containing only cells and three blank control wells containing only culture medium (20 μL DMSO diluted 200 times with culture medium being added to six wells) were included.
(1) After culturing for 6 days, 10 μL CCK-8 was added to each well and cultured for additional 2.5 h in a 37° C., 5% CO2 cell incubator.
(2) The absorbance (OD value) at 450 nm was measured with a multifunctional microplate reader.
(3) The data was analyzed by the Dose-response-inhibition equation in the software GraphPad Prism6, and the IC50 value was obtained.

In the case of `Cn1cc(-c2cc(S(C)(=O)=O)ccc2N2CCC3(CC2)CC3C#N)c2cc[nH]c2c1=O` (centres unmarked) [Compound 181, 6-(2-(6-methyl-7-oxo-6,7-dihydro-1H-pyrrolo[2,3-c]pyridin-4-yl)-4-(methylsulfonyl)phenyl)-6-aza-spiro[2.5]octan-1-cyanide], the IC50 is reported as 90 nM.

Same assay, conditions: Homo sapiens, CWR22Rv1, 144 h, 6 days

Going from `[2H]C([2H])([2H])n1cc(-c2cc(S(C)(=O)=O)ccc2N2CCC3(CC2)CC3C(=O)OCC)c2cc[nH]c2c1=O` (centres unmarked) [Compound 68, ethyl 6-(2-(6-trideuteromethyl-7-oxo-6,7-dihydro-1H-pyrrolo [2,3-c]pyridin-4-yl)-4-(methylsulfonyl)phenyl)-6-aza-spiro[2.5]octan-1-carboxylate] to `[2H]C([2H])([2H])n1cc(-c2cc(S(C)(=O)=O)ccc2N2CCC3(CC2)CC3C(N)=O)c2cc[nH]c2c1=O` (centres unmarked) [Compound 185, 6-(2-(6-trideuteromethyl-7-oxo-6,7-dihydro-1H-pyrrolo[2,3-c]pyridin-4-yl)-4-(methylsulfonyl)phenyl)-6-aza-spiro[2.5]octan-1-formamide], the IC50 rises from 530 nM to 1040 nM (2-fold). The first is the more potent here.

`[2H]C([2H])([2H])n1cc(-c2cc(S(C)(=O)=O)ccc2N2CCC3(CC2)CC3C(=O)O)c2cc[nH]c2c1=O` (centres unmarked) [Compound 69, 6-(2-(6-trideuteromethyl-7-oxo-6,7-dihydro-1H-pyrrolo[2,3-c]pyridin-4-yl)-4-(methylsulfonyl)phenyl)-6-aza-spiro[2.5]octan-1-carboxylic acid] and `Cn1cc(-c2cc(S(C)(=O)=O)ccc2N2CCC3(CC2)CC3C(N)=O)c2cc[nH]c2c1=O` (centres unmarked) [Compound 180, 6-(2-(6-methyl-7-oxo-6,7-dihydro-1H-pyrrolo[2,3-c]pyridin-4-yl)-4-(methylsulfonyl)phenyl)-6-aza-spiro[2.5]octan-1-formamide] are within 1.5-fold of each other in IC50: 570 nM for the first, 460 nM for the second.

Going from `CCCCS(=O)(=O)Nc1ccc(N2CCC3(CC2)CC3)c(-c2cn(C)c(=O)c3[nH]ccc23)c1` [Compound 70, N-(3-(6-methyl-7-oxo-6,7-dihydro-1H-pyrrolo[2,3-c]pyridin-4-yl)-4-(6-aza-spiro[2.5]octan-6-yl)phenyl)butyl-1-sulfonamide] to `CCS(=O)(=O)Nc1ccc(N2CCC3(CC2)COC3)c(-c2cn(C)c(=O)c3[nH]ccc23)c1` [Compound 194, N-(3-(6-methyl-7-oxo-6,7-dihydro-1H-pyrrolo[2,3-c]pyridin-4-yl)-4-(2-oxa-7-aza-spiro[3.5]nonan-7-yl)phenyl)ethanesulfonamide], the IC50 falls from 130 nM to 46 nM (2.8-fold). The second is the more potent here.

Going from `Cn1cc(-c2cc(NS(C)(=O)=O)ccc2N2CCCC3(CC3)C2)c2cc[nH]c2c1=O` [Compound 71, N-(3-(6-methyl-7-oxo-6,7-dihydro-1H-pyrrolo[2,3-c]pyridin-4-yl)-4-(5-aza-spiro[2.5]octan-5-yl)phenyl)methylsulfonamide] to `Cn1cc(-c2cc(NS(C)(=O)=O)ccc2N2CCC3(CC2)COC3)c2cc[nH]c2c1=O` [Compound 195, N-(3-(6-methyl-7-oxo-6,7-dihydro-1H-pyrrolo[2,3-c]pyridin-4-yl)-4-(2-oxa-7-aza-spiro[3.5]nonan-7-yl)phenyl)methanesulfonamide], the IC50 rises from 94 nM to 160 nM (1.7-fold).

Compared with `Cn1cc(-c2cc(S(C)(=O)=O)ccc2N2CCC3(CC2)COC3)c2cc[nH]c2c1=O` [Compound 177, 6-methyl-4-(5-(methylsulfonyl)-2-(2-oxa-7-aza-spiro[3.5]nonan-7-yl)phenyl)-1H-pyrrolo[2,3-c]pyridin-7(6H)-one], `[2H]C([2H])([2H])n1cc(-c2cc(S(C)(=O)=O)ccc2N2CCC3(CC2)COC3)c2cc[nH]c2c1=O` [Compound 183, 6-trideuteromethyl-4-(5-(methylsulfonyl)-2-(2-oxa-7-aza-spiro [3.5]nonan-7-yl)phenyl)-1H-pyrrolo[2,3-c]pyridin-7(6H)-one] is 3.7-fold higher in IC50: 17 nM for the first, 63 nM for the second.

Compared with `Cn1cc(-c2cc(S(C)(=O)=O)ccc2N2CCC3(CC2)CC3CO)c2cc[nH]c2c1=O` (centres unmarked) [Compound 179, 4-(2-(1-(hydroxymethyl)-6-aza-spiro[2.5]octan-6-yl)-5-(methylsulfonyl)phenyl)-6-methyl-1H-pyrrolo[2,3-c]pyridin-7(6H)-one], `[2H]C([2H])([2H])n1cc(-c2cc(S(N)(=O)=O)ccc2N2CCC3(CC2)CC3)c2cc[nH]c2c1=O` [Compound 201, 3-(6-trideuteromethyl-7-oxo-6,7-dihydro-1H-pyrrolo[2,3-c]pyridin-4-yl)-4-(6-azaspiro[2.5]octan-6-yl)benzenesulfonamide] is 36-fold lower in IC50: 51 nM for the first, 1.4 nM for the second.

Compared with `Cc1c[nH]c2c(=O)n(C)cc(-c3cc(S(C)(=O)=O)ccc3N3CCC4(CC3)CC4)c12` [Compound 182, 3,6-dimethyl-4-(5-(methylsulfonyl)-2-(6-aza-spiro[2.5]octan-6-yl)phenyl)-1H-pyrrolo[2,3-c]pyridin-7(6H)-one], `[2H]C([2H])([2H])n1cc(-c2cc(S(=O)(=O)NCC)ccc2N2CCC3(CC2)CC3)c2cc[nH]c2c1=O` [Compound 197, N-ethyl-3-(6-trideuteromethyl-7-oxo-6,7-dihydro-1H-pyrrolo [2,3-c]pyridin-4-yl)-4-(6-aza-spiro[2.5]octan-6-yl)benzenesulfonamide] is 8-fold lower in IC50: 40 nM for the first, 5 nM for the second. The second is the more potent here.

`[2H]C([2H])([2H])n1cc(-c2cc(S(=O)(=O)CC)cnc2N2CCC3(CC2)CC3)c2cc[nH]c2c1=O` [Compound 186, 4-(5(ethylsulfonyl)-2-(6-aza-spiro[2.5]octan-6-yl)pyridin-3-yl)-6-trideuteromethyl-1H-pyrrolo[2,3-c]pyridin-7(6H)-one] and `[2H]C([2H])([2H])n1cc(-c2cc(S(C)(=O)=O)cnc2N2CCC3(CC2)CC3)c2cc[nH]c2c1=O` [Compound 187, 6-trideuteromethyl-4-(5(methylsulfonyl)-2-(6-aza-spiro[2.5]octan-6-yl)pyridin-3-yl)-1H-pyrrolo[2,3-c]pyridin-7(6H)-one] are within 1.5-fold of each other in IC50: 21 nM for the first, 19 nM for the second.

Compared with `[2H]C([2H])([2H])n1cc(-c2cc(S(=O)(=O)C(C)C)cnc2N2CCC3(CC2)CC3)c2cc[nH]c2c1=O` [Compound 188, 4-(5-(isopropylsulfonyl)-2-(6-aza-spiro[2.5]octan-6-yl)pyridin-3-yl)-6-trideuteromethyl-1H-pyrrolo[2,3-c]pyridin-7(6H)-one], `[2H]C([2H])([2H])n1cc(-c2cc(S(N)(=O)=O)cnc2N2CCC3(CC2)CC3)c2cc[nH]c2c1=O` [Compound 199, 5-(6-trideuteromethyl-7-oxo-6,7-dihydro-1H-pyrrolo[2,3-c]pyridin-4-yl)-6-(6-aza-spiro[2.5]octan-6-yl)pyridin-3-sulfonamide] is 19-fold lower in IC50: 38 nM for the first, 2 nM for the second. The second is the more potent here.

First: [2H]C([2H])([2H])n1cc(-c2cc(NS(C)(=O)=O)ccc2N2CCC3(CC2)COC3)c2cc[nH]c2c1=O [Compound 189, N-(3-(6-trideuteromethyl-7-oxo-6,7-dihydro-1H-pyrrolo[2,3-c]pyridin-4-yl)-4-(2-oxa-7-aza-spiro[3.5]nonan-7-yl)phenyl)methanesulfonamide]
Second: [2H]C([2H])([2H])n1cc(-c2cc(NS(=O)(=O)CC)ccc2N2CCC3(CC2)COC3)c2cc[nH]c2c1=O [Compound 196, N-(3-(6-trideuteromethyl-7-oxo-6,7-dihydro-1H-pyrrolo[2,3-c]pyridin-4-yl)-4-(2-oxa-7-aza-spiro[3.5]nonan-7-yl)phenyl)ethanesulfonamide]
The IC50 of the first is 2.1-fold higher: 120 nM for the first, 56 nM for the second. The second is the more potent here.

Going from `CCS(=O)(=O)Nc1ccc(N2CC3CC2CO3)c(-c2cn(C)c(=O)c3[nH]ccc23)c1` (centres unmarked) [Compound 190, N-(4-(2-oxa-5-azabicyclo[2.2.1]heptan-5-yl)-3-(methyl-7-oxo-6,7-dihydro-1H-pyrrolo[2,3-c]pyridin-4-yl)phenyl)ethanesulfonamide] to `Cn1cc(-c2cc(NS(C)(=O)=O)ccc2N2CC3CC2CO3)c2cc[nH]c2c1=O` (centres unmarked) [Compound 192, N-(4-(2-oxa-5-azabicyclo[2.2.1]heptan-5-yl)-3-(6-methyl-7-oxo-6,7-dihydro-1H-pyrrolo[2,3-c]pyridin-4-yl)phenyl)methanesulfonamide], the IC50 rises from 180 nM to 310 nM (1.7-fold). The first is the more potent here.

Going from `Cn1cc(-c2cc(NS(=O)(=O)C3COC3)ccc2N2CCC3(CC3)C2)c2cc[nH]c2c1=O` [Compound 191, N-(3-(6-methyl-7-O-6,7-dihydro-1H-pyrrolo[2,3-c]pyridin-4-yl)-4-(5-aza-spiro[2.4]heptan-2-yl)phenyl)oxetane-3-ylsulfonamide] to `[2H]C([2H])([2H])n1cc(-c2cc(S(N)(=O)=O)ccc2N2CCC3(CC3)C2)c2cc[nH]c2c1=O` [Compound 200, 3-(6-trideuteromethyl-7-oxo-6,7-dihydro-1H-pyrrolo[2,3-c]pyridin-4-yl)-4-(5-aza-spiro[2.4]heptan-5-yl)benzensulfonamide], the IC50 falls from 140 nM to 6.7 nM (21-fold).

`[2H]C([2H])([2H])n1cc(-c2cc(S(N)(=O)=O)cnc2N2CCC3(CC3)C2)c2cc[nH]c2c1=O` [Compound 198, 5-(6-trideuteromethyl-7-oxo-6,7-dihydro-1H-pyrrolo[2,3-c]pyridin-4-yl)-6-(5-aza-spiro[2.4]heptan-5-yl)pyridin-3-sulfonamide] gave an IC50 of 10 nM.
